Laboratory results from patent US10906876B2, “Tetrahydroisoquinolines as selective NADPH oxidase 2 inhibitors” (University of Pittsburgh—Of the Commonwealth System of …, priority 2013, dated 2021).
Where two headings read alike, the source gives them in different places.

Target: T1, Nox2 (Homo sapiens, UniProt P04839)
T1 construct: expressed in transfected cells
T1 sequence (P04839 2-570 limits assumed): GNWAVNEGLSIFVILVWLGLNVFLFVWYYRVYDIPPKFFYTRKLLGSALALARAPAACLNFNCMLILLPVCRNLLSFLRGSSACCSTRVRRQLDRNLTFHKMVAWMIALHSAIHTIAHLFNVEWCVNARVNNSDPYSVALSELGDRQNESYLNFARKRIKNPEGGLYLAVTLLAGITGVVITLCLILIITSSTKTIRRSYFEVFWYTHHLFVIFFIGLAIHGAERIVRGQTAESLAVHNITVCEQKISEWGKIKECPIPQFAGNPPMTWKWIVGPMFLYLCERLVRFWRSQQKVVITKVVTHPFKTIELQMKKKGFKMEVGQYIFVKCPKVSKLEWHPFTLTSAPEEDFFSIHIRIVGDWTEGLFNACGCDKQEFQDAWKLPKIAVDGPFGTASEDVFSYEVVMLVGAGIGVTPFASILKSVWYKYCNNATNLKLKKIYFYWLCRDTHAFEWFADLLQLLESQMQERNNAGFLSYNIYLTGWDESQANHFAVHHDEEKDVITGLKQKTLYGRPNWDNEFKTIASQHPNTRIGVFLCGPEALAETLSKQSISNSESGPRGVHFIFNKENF
Experiment: Cell-free superoxide production in lysed COS-Nox2 cells / Nox2 cell homogenate, cytochrome C assay
Type: biochemical
Description: COS-Nox2, COS-Nox1/NOXO1/NOXA1 and COS-22 cells were suspended to a concentration of 5×10^7 cells/ml in ice-cold disruption buffer (8 mM potassium, sodium phosphate buffer pH 7.0, 131 mM NaCl, 340 mM sucrose, 2 mM NaN3, 5 mM MgCl2, 1 mM EGTA, 1 mM EDTA and protease inhibitor cocktail) (Price et al., Blood, 2002, 99:2653-2661; Molshanski-Mor et al., Methods Mol. Biol., 2007, 412:385-428). The cells were lysed by freeze/thaw cycles (5 cycles), and passed through a 30-gauge needle 5 times to further lyse the cells. Cell disruption was confirmed by phase contrast microscopy. The cell lysate was centrifuged at 1000×g for 10 min at 4° C. to remove unbroken cells, nuclei and debris. Throughout all procedures, extreme care was taken to maintain the lysate at a temperature close to 0° C. Superoxide (O2^•−) production was calculated from the initial linear rate (over 10 min) of SOD-inhibitable cytochrome c reduction quantified at 550 nm using the extinction coefficient of 21.1 mM^−1 cm^−1 (Biotek Synergy 4 Hybrid Multi-Mode Microplate Reader). The oxidase assay buffer consisted of 65 mM sodium phosphate buffer (pH 7.0), 1 mM EGTA, 10 μM FAD, 1 mM MgCl2, 2 mM NaN3 and 0.2 mM cytochrome C. The components of the cell-free system were added in the following order: oxidase assay buffer, cell lysate (5×10^5 cell equivalents/well) and drugs at a final concentration as shown on individual graphs. The plates were placed on an orbital shaker to mix contents for 5 min at 120 movements/min at room temperature. LiDS, an established lipid activator of phagocyte cell-free system, was added at a concentration of 130 μM and O2^•− production was initiated by the addition of 180 μM NADPH.
Cell-free activity in lysed COS-Nox2 cells was promising, since compound 7 was also able to inhibit O2^•− production in a system in which assembly of active Nox2 subunits is achieved by treatment with the anionic amphiphile LiDS (lithium dodecyl sulfate) and the reaction is initiated by cofactor NADPH (Molshanski-Mor et al., Methods Mol. Biol. 2007, 412:385-428). COS-Nox2 cell lysate was preincubated with various concentrations of compound 7 for 15 min at 25° C. After the addition of 130 μM LiDS, O2^•− production was initiated by the addition of 180 μM NADPH and measured by the initial linear rate of SOD-inhibitable cytochrome C reduction. O2^•− production is expressed as nmol O2^•−/min/10^7 cell equivalents.
Cells were suspended to a concentration of 5×10^7 cells/ml in ice-cold disruption buffer (8 mM potassium, sodium phosphate buffer pH 7.0, 131 mM NaCl, 340 mM sucrose, 2 mM NaN3, 5 mM MgCl2, 1 mM EGTA, 1 mM EDTA and protease inhibitor cocktail). The cells were lysed by freeze/thaw cycles (5 cycles), and passed through a 30-gauge needle five times to further lyse the cells. Cell disruption was confirmed by phase contrast microscopy. The cell lysate was centrifuged at 1000×g for 10 min at 4° C. to remove unbroken cells, nuclei and debris. Throughout all procedures, extreme care was taken to maintain the lysate at a temperature close to 0° C.
Superoxide (O2^•−) production from cell homogenates was calculated from the initial linear rate (over 10 min) of SOD-inhibitable cytochrome c reduction quantified at 550 nm using the extinction coefficient of 21.1 mM-1 cm-1 (Biotek Synergy 4 Hybrid Multi-Mode Microplate Reader). The oxidase assay buffer consisted of 65 mM sodium phosphate buffer (pH 7.0), 1 mM EGTA, 10 μM FAD, 1 mM MgCl2, 2 mM NaN3 and 0.2 mM cytochrome C.

[1] = cell-free system, data not shown, read-out: IC50 in a cell-free system

Row | SMILES | LiDS-stimulated O2•− generation (6.3 μM compound, lysed COS-Nox2 cells, 130 μM LiDS, 180 μM NADPH) | IC50 (Nox2 cell homogenate stimulated with LiDS, read-out: IC50 in ROS production by Nox2 cell homogenate) [µM] | IC50 [1] [µM] | IC50 in cell homogenate lower than that for whole cells (homogenate vs whole cells) [fold]
1 | C=C(C)CC1NC2CC(C)(C)C1c1c(Br)cccc12 (racemic) [Compound 7, (±)-(1S,4R,9S)-5-Bromo-3,3-dimethyl-9-(2-methylallyl)-1,2,3,4-tetrahydro-1,4-(epimino-methano)-naphthalene] | almost non-stimulated levels | – | – | –
2 | C=C(C)CC1C2c3c(Br)cccc3C(CC2(C)C)N1CCCCC (racemic) [Compound 11g, (±)-(1S,4R,9S)-5-Bromo-3,3-dimethyl-9-(2-methylallyl-10-pentyl-1,2,3,4-tetrahydro-1,4-(epiminomethano)naphthalene] | – | 0.0324 ± 0.009 | ~0.03 | 100
3 | C=C(C)CC1C2c3c(Br)cccc3C(CC2(C)C)N1Cc1cccs1 (racemic) [Compound 11h, (±)-(1S,4R,9S)-5-Bromo-3,3-dimethyl-9-(2-methylallyl)-10-(thiophen-2-ylmethyl)-1,2,3,4-tetrahydro-1,4-(epiminomethano)naphthalene] | – | – | ~0.03 | –
